Laboratory results taken from ChEMBL document CHEMBL1131794, “The synthesis and evaluation of 6-alkylidene-2'beta-substituted penam sulfones as beta-lactamase inhibitors” (Bioorg Med Chem Lett, 1999).

How the values were obtained:
Beta-lactamase [1] = biological target: T1, Beta-lactamase (Staphylococcus aureus, UniProt P00807); experiment: Inhibitory activity against serine Beta-lactamase derived from Staphylococcus aureus
Beta-lactamase TEM = Beta-lactamase TEM (Escherichia coli, UniProt P62593); experiment: Inhibitory activity against serine Beta-lactamase TEM derived from […]; assay type: single protein
Sequence of Beta-lactamase TEM (P62593 whole entry): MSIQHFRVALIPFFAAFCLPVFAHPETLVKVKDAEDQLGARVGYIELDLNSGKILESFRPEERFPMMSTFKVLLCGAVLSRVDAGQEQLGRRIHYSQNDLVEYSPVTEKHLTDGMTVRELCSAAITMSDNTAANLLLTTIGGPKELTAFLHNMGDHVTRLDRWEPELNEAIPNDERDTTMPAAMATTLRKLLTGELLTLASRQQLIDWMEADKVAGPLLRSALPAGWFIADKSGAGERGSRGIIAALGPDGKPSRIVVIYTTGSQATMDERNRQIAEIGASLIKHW

Beta-lactamase [2] = biological target: T1, Beta-lactamase; experiment: Inhibitory activity against serine beta-lactamase, PC1 (class A) derived from Staphylococcus aureus
Escherichia coli [3] = experiment: In vitro synergistic activity against Escherichia coli 300 + (ampR ampC); assay type: functional; further: test concentration or dose not given here
Escherichia coli [4] = experiment: In vitro synergistic activity against Escherichia coli ATCC 25922 (no beta-lactamase); assay type: functional; further: test concentration or dose not given here
Pseudomonas aeruginosa = experiment: In vitro synergistic activity against Pseudomonas aeruginosa Ps505A1 (AmpC derepressed); assay type: functional; further: test concentration or dose not given here
Escherichia coli [5] = experiment: In vitro synergistic activity against Escherichia coli C600N + (L1); assay type: functional
Escherichia coli [6] = experiment: In vitro synergistic activity against Escherichia coli C600N + (TEM-10); assay type: functional
Escherichia coli [7] = experiment: In vitro synergistic activity against Escherichia coli GC6267 clinical isolate; assay type: functional
Escherichia coli [8] = experiment: In vitro synergistic activity against Escherichia coli C600N + (MIR-1); assay type: functional
Escherichia coli [9] = experiment: In vitro synergistic activity against Escherichia coli C600N + (TEM-1); assay type: functional
Escherichia coli [10] = experiment: In vitro synergistic activity against Escherichia coli C600N + (Imi-1); assay type: functional
Escherichia coli [11] = experiment: In vitro synergistic activity against Escherichia coli C600N + (Sme-1); assay type: functional
Escherichia coli [12] = experiment: In vitro synergistic activity against Escherichia coli GC 6266 clinical isolate; assay type: functional
Enterobacter cloacae [13] = experiment: In vitro synergistic activity against Enterobacter cloacae (Imi-1+AmpC); assay type: functional
Escherichia coli [14] = experiment: In vitro synergistic activity against Escherichia coli 4100 + (CCRA); assay type: functional
Escherichia coli [15] = experiment: In vitro synergistic activity against Escherichia coli C600N (no beta-lactamase); assay type: functional
Escherichia coli [16] = experiment: In vitro synergistic activity against Escherichia coli 300 (no beta-lactamase, imp mutant); assay type: functional
Klebsiella pneumoniae [17] = experiment: In vitro synergistic activity against Klebsiella pneumoniae GC 6269 clinical isolate; assay type: functional; further: test concentration or dose not given here
Escherichia coli [18] = experiment: In vitro synergistic activity against Escherichia coli C600N + (SHV-4); assay type: functional
Escherichia coli [19] = experiment: In vitro synergistic activity against Escherichia coli 300 + (TEM-1); assay type: functional
Enterobacter cloacae [20] = experiment: In vitro synergistic activity against Enterobacter cloacae SC12629 (AmpC inducible); assay type: functional; further: test concentration or dose not given here
Aeromonas sobria = experiment: In vitro synergistic activity against Aeromonas sobria (Asb A, OXA-12, Asb M); assay type: functional; further: test concentration or dose not given here
Klebsiella pneumoniae [21] = experiment: In vitro synergistic activity against Klebsiella pneumoniae KC2 (TEM-10); assay type: functional; further: test concentration or dose not given here
Escherichia coli [22] = experiment: In vitro synergistic activity against Escherichia coli C600N + (OXA-10) {PSE-2}; assay type: functional
Klebsiella aerogenes = experiment: In vitro synergistic activity against Enterobacter aerogenes GC 6268 clinical isolate; assay type: functional; further: test concentration or dose not given here
Escherichia coli [23] = experiment: In vitro synergistic activity against Escherichia coli C600N + (PSE-1); assay type: functional
Escherichia coli [24] = experiment: In vitro synergistic activity against Escherichia coli GC6265 (TEM-1); assay type: functional
Escherichia coli [25] = experiment: In vitro synergistic activity against Escherichia coli C600N + (SHV-1); assay type: functional
Staphylococcus aureus = experiment: In vitro synergistic activity against Staphylococcus aureus (PC1); assay type: functional; further: test concentration or dose not given here
Escherichia coli [26] = experiment: In vitro synergistic activity against Escherichia coli C600N + (P99); assay type: functional
[27] = system: Stenotrophomonas maltophilia; experiment: In vitro synergistic activity against Stenotrophomonas maltophilia 1712(L1); assay type: functional; further: test concentration or dose not given here
Escherichia coli [28] = experiment: In vitro synergistic activity against Escherichia coli ATCC 35218 (TEM-1); assay type: functional
Escherichia coli [29] = experiment: In vitro synergistic activity against Escherichia coli C600N + (ampR ampC); assay type: functional; further: test concentration or dose not given here
Klebsiella pneumoniae [30] = experiment: In vitro synergistic activity against Klebsiella pneumoniae (ACT-1 + 3 blas, IPM=S); assay type: functional; further: test concentration or dose not given here
Serratia marcescens = experiment: In vitro synergistic activity against Serratia marcescens GC 4132 (Amp C); assay type: functional; further: test concentration or dose not given here
Escherichia coli [31] = experiment: In vitro synergistic activity against Escherichia coli C600N + (IRT-2); assay type: functional; further: test concentration or dose not given here
Escherichia coli [32] = experiment: In vitro synergistic activity against Escherichia coli 4100 (no beta-lactamase); assay type: functional

T1 sequence (P00807 whole entry): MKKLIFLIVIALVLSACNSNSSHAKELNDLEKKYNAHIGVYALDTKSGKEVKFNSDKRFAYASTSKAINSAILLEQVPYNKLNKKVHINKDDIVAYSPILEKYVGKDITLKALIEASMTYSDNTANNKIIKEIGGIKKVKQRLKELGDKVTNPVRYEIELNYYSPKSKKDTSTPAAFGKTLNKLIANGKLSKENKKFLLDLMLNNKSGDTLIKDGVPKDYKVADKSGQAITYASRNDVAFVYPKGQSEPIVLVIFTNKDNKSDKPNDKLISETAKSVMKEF

COC(=O)/C=C1/C(=O)N2C1S(=O)(=O)[C@@](C)(COC(=O)CSc1nnnn1C)[C@@H]2C(=O)O (some centres undefined)
IC50 (Beta-lactamase [1]): 13.2 µM
IC50 (Beta-lactamase TEM): 2.37 µM
IC50 (Beta-lactamase [2]): 940 µM

C[C@]1(CCl)[C@H](C(=O)O)N2C(=O)/C(=C/C(=O)O)C2S1(=O)=O (some centres undefined)
IC50 (Beta-lactamase [1]): 527 µM
IC50 (Beta-lactamase TEM): 120 µM
IC50 (Beta-lactamase [2]): 2100 µM

C[C@]1(/C=C/C#N)[C@H](C(=O)O)N2C(=O)/C(=C/C(=O)O)C2S1(=O)=O (some centres undefined)
IC50 (Beta-lactamase [1]): 6.76 µM
IC50 (Beta-lactamase TEM): 21.7 µM
IC50 (Beta-lactamase [2]): 504 µM

CC1(C)[C@H](C(=O)O)N2C(=O)/C(=C/C(=O)O)C2S1(=O)=O (some centres undefined)
IC50 (Beta-lactamase [1]): 4.5 µM
IC50 (Beta-lactamase TEM): 1.8 µM
IC50 (Beta-lactamase [2]): 108 µM

C[C@]1(COC=O)[C@H](C(=O)O)N2C(=O)/C(=C/C(=O)O)C2S1(=O)=O (some centres undefined)
IC50 (Beta-lactamase [1]): 0.592 µM
IC50 (Beta-lactamase [2]): 173 µM

CC(=O)OC[C@@]1(C)[C@H](C(=O)O)N2C(=O)/C(=C/C(=O)O)C2S1(=O)=O (some centres undefined)
IC50 (Beta-lactamase [1]): 0.708 µM
IC50 (Beta-lactamase TEM): 0.18 µM
IC50 (Beta-lactamase [2]): 76.5 µM

COC(=O)/C=C1/C(=O)N2[C@@H](C(=O)O)[C@](C)(COC(C)=O)S(=O)(=O)[C@H]12
IC50 (Beta-lactamase [1]): 9.51 µM
IC50 (Beta-lactamase TEM): 2.72 µM

C[C@]1(COC(=O)CCl)[C@H](C(=O)O)N2C(=O)/C(=C/C(=O)O)[C@H]2S1(=O)=O
IC50 (Beta-lactamase TEM): 0.196 µM
IC50 (Beta-lactamase [2]): 7.2 µM

CC(C)(O/N=C(\C(=O)N[C@@H]1C(=O)N2C(C(=O)[O-])=C(C[n+]3ccccc3)CS[C@H]12)c1csc(N)n1)C(=O)O [CEFTAZIDIME]
MIC (Escherichia coli [3]): 4 mg/L
MIC (Escherichia coli [4]): < 0.06 mg/L
MIC (Pseudomonas aeruginosa): 32 mg/L
MIC (Escherichia coli [5]): 32 mg/L
MIC (Escherichia coli [6]): 64 mg/L
MIC (Escherichia coli [7]): 0.25 mg/L
MIC (Escherichia coli [8]): 64 mg/L
MIC (Escherichia coli [9]): 0.12 mg/L
MIC (Escherichia coli [10]): 1 mg/L
MIC (Escherichia coli [11]): 0.5 mg/L
MIC (Escherichia coli [12]): 0.25 mg/L
MIC (Enterobacter cloacae [13]): 0.5 mg/L
MIC (Escherichia coli [14]): > 64 mg/L
MIC (Escherichia coli [15]): 0.12 mg/L
MIC (Escherichia coli [16]): < 0.06 mg/L
MIC (Klebsiella pneumoniae [17]): 0.5 mg/L
MIC (Escherichia coli [18]): > 64 mg/L
MIC (Escherichia coli [19]): < 0.06 mg/L
MIC (Enterobacter cloacae [20]): > 64 mg/L
MIC (Aeromonas sobria): < 0.06 mg/L
MIC (Klebsiella pneumoniae [21]): 64 mg/L
MIC (Escherichia coli [22]): 0.12 mg/L
MIC (Klebsiella aerogenes): > 64 mg/L
MIC (Escherichia coli [23]): 0.25 mg/L
MIC (Escherichia coli [24]): < 0.06 mg/L
MIC (Escherichia coli [25]): 0.5 mg/L
MIC (Staphylococcus aureus): 4 mg/L
MIC (Escherichia coli [26]): 64 mg/L
MIC [27]: > 64 mg/L
MIC (Escherichia coli [28]): < 0.06 mg/L
MIC (Escherichia coli [29]): 64 mg/L
MIC (Klebsiella pneumoniae [30]): > 64 mg/L
MIC (Serratia marcescens): 0.25 mg/L
MIC (Escherichia coli [31]): 0.25 mg/L
MIC (Escherichia coli [32]): < 0.06 mg/L

C[C@@H](O)[C@H]1C(=O)N2C(C(=O)O)=C(SCCNC=N)C[C@H]12 [IMIPENEM ANHYDROUS]
MIC (Escherichia coli [3]): < 0.06 mg/L
MIC (Escherichia coli [4]): < 0.06 mg/L
MIC (Pseudomonas aeruginosa): 0.5 mg/L
MIC (Escherichia coli [5]): 2 mg/L
MIC (Escherichia coli [6]): 0.12 mg/L
MIC (Escherichia coli [7]): 0.12 mg/L
MIC (Escherichia coli [8]): 0.5 mg/L
MIC (Escherichia coli [9]): 0.12 mg/L
MIC (Escherichia coli [10]): 4 mg/L
MIC (Escherichia coli [11]): 64 mg/L
MIC (Escherichia coli [12]): 0.25 mg/L
MIC (Enterobacter cloacae [13]): > 64 mg/L
MIC (Escherichia coli [14]): 16 mg/L
MIC (Klebsiella pneumoniae [17]): 0.12 mg/L
MIC (Escherichia coli [18]): 0.12 mg/L
MIC (Escherichia coli [19]): < 0.06 mg/L
MIC (Enterobacter cloacae [20]): 1 mg/L
MIC (Aeromonas sobria): > 64 mg/L
MIC (Klebsiella pneumoniae [21]): < 0.06 mg/L
MIC (Escherichia coli [22]): 0.12 mg/L
MIC (Klebsiella aerogenes): 1 mg/L
MIC (Escherichia coli [23]): 0.12 mg/L
MIC (Escherichia coli [24]): < 0.06 mg/L
MIC (Escherichia coli [25]): 0.12 mg/L
MIC (Staphylococcus aureus): < 0.06 mg/L
MIC (Escherichia coli [26]): 0.25 mg/L
MIC [27]: > 64 mg/L
MIC (Escherichia coli [28]): < 0.06 mg/L
MIC (Escherichia coli [29]): 0.5 mg/L
MIC (Klebsiella pneumoniae [30]): 1 mg/L
MIC (Serratia marcescens): 1 mg/L
MIC (Escherichia coli [31]): 0.25 mg/L
MIC (Escherichia coli [32]): 0.12 mg/L

CCN1CCN(C(=O)N[C@@H](C(=O)N[C@@H]2C(=O)N3[C@@H]2SC(C)(C)[C@@H]3C(=O)O)c2ccccc2)C(=O)C1=O [PIPERACILLIN]
MIC (Escherichia coli [3]): 16 mg/L
MIC (Escherichia coli [4]): 2 mg/L
MIC (Pseudomonas aeruginosa): > 64 mg/L
MIC (Escherichia coli [5]): > 64 mg/L
MIC (Escherichia coli [7]): > 64 mg/L
MIC (Escherichia coli [8]): 64 mg/L
MIC (Escherichia coli [10]): > 64 mg/L
MIC (Escherichia coli [11]): > 64 mg/L
MIC (Escherichia coli [12]): > 64 mg/L
MIC (Enterobacter cloacae [13]): > 64 mg/L
MIC (Escherichia coli [14]): > 64 mg/L
MIC (Escherichia coli [15]): 2 mg/L
MIC (Klebsiella pneumoniae [17]): > 64 mg/L
MIC (Escherichia coli [19]): > 64 mg/L
MIC (Enterobacter cloacae [20]): > 64 mg/L
MIC (Aeromonas sobria): 64 mg/L
MIC (Klebsiella pneumoniae [21]): > 64 mg/L
MIC (Klebsiella aerogenes): > 64 mg/L
MIC (Escherichia coli [23]): 32 mg/L
MIC (Escherichia coli [24]): > 64 mg/L
MIC (Escherichia coli [25]): 4 mg/L
MIC (Staphylococcus aureus): > 64 mg/L
MIC (Escherichia coli [26]): > 64 mg/L
MIC [27]: > 64 mg/L
MIC (Escherichia coli [28]): > 64 mg/L
MIC (Escherichia coli [29]): > 64 mg/L
MIC (Klebsiella pneumoniae [30]): > 64 mg/L
MIC (Serratia marcescens): 64 mg/L
MIC (Escherichia coli [31]): > 64 mg/L
MIC (Escherichia coli [32]): < 0.06 mg/L
